# Laboratory results from ChEMBL document CHEMBL1156243.
# Activity calls are given as the source filed them. Unless noted, the rule behind the calls is not given here.
# What was measured:
# [1] = Binding affinity to amyloid beta (1 to 42) fibrils by change in fluorescence at 100 uM after 2 mins
# [2] = Binding affinity to amyloid beta (1 to 42) oligomers by change in fluorescence at 100 uM after 2 mins
# [3] = Binding affinity to amyloid beta (1 to 42) fibrils by change in fluorescence at 100 uM after 10 mins
# [4] = Binding affinity to amyloid beta (1 to 42) oligomers by change in fluorescence at 100 uM after 10 mins
# [5] = Binding affinity to amyloid beta (1 to 42) fibrils by fluorescence quenching after 30 mins
# [6] = Binding affinity to amyloid beta (1 to 42) oligomers by fluorescence quenching after 30 mins
# [7] = Inhibition of amyloid beta (1 to 42) aggregation […] after 48 hrs by fluorescence imaging
Activity [1],Activity [2],Activity [3],Activity [4],Activity [5],Activity [6],inhibition [7],SMILES
Active,Active,–,–,–,–,–,O=S(=O)(O)c1cccc2c(-c3ccc(Nc4ccccc4)c4c(S(=O)(=O)O)cccc34)ccc(Nc3ccccc3)c12
–,–,Active,Active,inactive,Active,inactive,c1ccc2[nH]ccc2c1
